Data published in patent US20260072027A1, “Peptides And Method” (Queen Mary University of London, priority 2022, published 2026).
“Also recorded” adds a separate entry of the source. Where no end group is shown, it is not given here.

Tests used:
serum IgG autoantibodies = assay: ELISA for autoantibody detection: serum antibody binding to native and oxPTM insulin peptides; set-up: species or system human
Outline: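 Plates coated overnight at 4 °C with native or HOCl/•OH-oxidised insulin peptides (10 μg/ml, carbonate buffer pH 9.6), blocked with 5% BSA, incubated 2 h with sera at 1:200, then probed with anti-human IgG-HRP and developed with TMB, read at 450 nm. Positivity cut-off: healthy-control mean O.D. plus 3×SEM.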

[1] = tested on: CD4+ and CD8+ T-cells and IgG autoantibodies; assay: Overlap of CD4+, CD8+ and IgG antibody responses (Venn analysis); assay type: cell-based, human; conditions: type 1 diabetes; for patients with overlapping (concordant) CD4+ and CD8+ responses to the peptide: Study cohort 2, SI >1
From the text: FIG. 13. Venn diagrams of CD4^+, CD8^+ and antibody response to oxPTM-INSPs. Panels a, b, and c show the overlap between IgG autoantibody and T-cell (CD4^+ and CD8^+) responses specific to oxPTM-INSP-3 (a), Nt-INSP-4 (b) and oxPTM-INSP-6 (c). Panels d, e, and f display the overlap between T-cell responses to the three insulin peptides and IgG to oxPTM-INS modified by hydroxyl radical (^●OH-INS). […] There is concordance between reactivity to oxPTM-INS and CD4^+ and CD8^+ reactivity for all three tested peptides (7/17, 8/18 and 8/18 for oxPTM-INSP-3, Nt-INSP-4 and oxPTM-INSP-6, respectively). The stimulatory index >1 was used for definition of positive T-cell response.
Correlation between T-cell stimulation and antibody response. Subjects evaluated for T-cell stimulation were also tested for antibody reactivity to either oxPTM-INSPs or oxidised intact insulin (oxPTM-INS) to assess correlations between humoral and cellular responses (FIG. 11-e-f). In study cohort 2, antibody reactivity to oxPTM-INSP-6 was the highest as observed in the study cohort 1, with 11/18 (61.1%) binding to at least one oxPTM-INSP-6 derivatives (p<0.001 oxPTM-INSP-6 vs. Nt-INSP-6). Detailed analysis of autoantibody response in this cohort is described in the ESM (ESM results Antibody binding to oxPTM-INSPs in Study cohort 2).
We then analysed the extent of correlation between CD4^+, CD8^+ and IgG antibody responses. […] The CD4^+ T cell response to Nt-INSP-4 frequently overlapped with CD8^+ (13/18 [72.2%]), and to a lesser extent to antibodies (7/18 [38.8%]). […] CD4^+ response to oxPTM-INSP-6 was linked to both CD8^+ and/or antibodies: […] patients had concordant CD4^+ and CD8^+ responses, while 9/18 (50%) patients had concordant CD4^+ and antibody responses. […] CD4^+ T-cell stimulation to Nt-INSP-4, oxPTM-INSP-6 and oxPTM-INSP-3 was associated with antibody reactivity to oxPTM-INS in 8/18 (44.4%), 8/18 (44.4%) and 7/18 (38.9%) type 1 diabetes patients.

[2] = Study cohort 1, in house modifications

Substance | % binders, Healthy controls (serum IgG autoantibodies; [2]) | Mean ± SEM (absorbance, OD), Healthy controls (serum IgG autoantibodies; [2]) | % binders, Type 1 diabetes (serum IgG autoantibodies; Study cohort 1, in house modifications, cut-off = mean of healthy controls to Nt-INSP plus 3 SEM) | Mean ± SEM (absorbance, OD), Type 1 diabetes (serum IgG autoantibodies; Study cohort 1 sera, in house modifications) | type 1 diabetes binders (IgG autoantibody reactivity) (serum IgG autoantibodies; Study cohort 2, N = 18) | concordance between reactivity to oxPTM-INS and CD4+ and CD8+ reactivity (patients/patients) ([1]; Study cohort 2) | patients with CD4+ T-cell stimulation associated with antibody reactivity to oxPTM-INS ([1]; Study cohort 2) | patients with CD4+, CD8+ T-cells to the peptide and autoantibodies to oxPTM-INS simultaneously ([1]; Study cohort 2) | patients with concordant CD4+ and antibody responses to the peptide ([1]; Study cohort 2) | patients with concordant CD4+, CD8+ and IgG antibody response to the peptide ([1]; Study cohort 2) | patients with overlapping (concordant) CD4+ and CD8+ responses to the peptide [1] | Antibody reactivity of serum samples (in words) (serum IgG autoantibodies; ELISA)
LVEALYLVCGERGFFYTPKT [insulin B:11-30 native peptide] | 20% | 0.306 ± 0.032 | 50% | 0.469 ± 0.047 | 38.9% | 8/18 | 44.4% | 27.8% | 38.8% | 22.2% | 72.2% | 
oxPTM-INSP-3: oxidised forms of insulin peptide 3 (A:12-21), in house oxidised or in silico derivatives (SLYQLENYCN; not fully specified (N-terminus); also: oxidised forms, in house oxidised or in silico derivatives, modified residues not defined) |  |  |  |  |  | 7/17 | 38.9% | 22.2% |  | 5.5% | 50.0% | High background binding in healthy controls; also recorded: high background binding of healthy controls
